The source of these data is patent US20260274833A1 (NiKang Therapeutics, Inc., priority 2022, published 2026).

In general, IC50 refers to the concentration at which inhibition is half-maximal.

Each structure is given as a SMILES string.

In the assay the target is T1, CDK2 (Homo sapiens, UniProt P24941).
T1 construct: endogenous in cells; host or cells: OVCAR3 cells
Put plainly: Phospho-RB measurement in OVCAR3 cells (HTRF phospho-RB cellular kit). The format is cell-based. Conditions: inhibition of RB phosphorylation at S807/811 (HTRF, TR-FRET ratio 665/620), 24 h compound treatment, 0.3 to 10,000 nM. A digest of the protocol: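 IC50 came from a four-parameter logistic fit of the DMSO-normalized TR-FRET ratio (665/620 nm). That ratio reflects RB phosphorylation at S807/811, read with an HTRF antibody pair 4 h after adding lysate at room temperature.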
With `O=S1(=O)C[C@@H]2[C@H](C1)[C@H]2Nc1nccc(-c2sc(C34CC(C3)C4)nc2-c2cccc(NS(=O)(=O)N3Cc4ccc(CO)cc4C3)c2F)n1` [Example 11, N-(3-(2-(bicyclo [1.1.1]pentan-1-yl)-5-(2-(((1R,5S,6r)-3,3-dioxido-3-thiabicyclo-[3.1.0]hexan-6-yl)amino)pyrimidin-4-yl)thiazol-4-yl)-2-fluorophenyl)-5-(hydroxymethyl) isoindoline-2-sulfonamide], the IC50 was determined as 0.081 µM.
Then `CN1CC2CCC(C1)N2c1nc(-c2cccc(NS(=O)(=O)N3Cc4cccc(OC(F)F)c4C3)c2F)c(-c2ccnc(NC3CC4(C3)CS(=O)(=O)C4)n2)s1` [Example 30, 4-(difluoromethoxy)-N-(3-(5-(2-((2,2-dioxido-2-thiaspiro [3.3]heptan-6-yl)amino)pyrimidin-4-yl)-2-(3-methyl-3,8-diazabicyclo [3.2.1]-octan-8-yl)thiazol-4-yl)-2-fluorophenyl)-isoindoline-2-sulfonamide], with 0.0285 µM; and `CN(C)Cc1cccc(Nc2nccc(-c3sc(C(C)(C)C)nc3-c3cccc(NS(=O)(=O)N4CCc5ccc(C#N)cc54)c3F)n2)c1` [Example 241, N-(3-(2-(tert-butyl)-5-(2-((3-((dimethylamino)-methyl)phenyl)-amino)pyrimidin-4-yl)thiazol-4-yl)-2-fluorophenyl)-6-cyanoindoline-1-sulfonamide], with 0.521 µM; and `CNS(=O)(=O)N1CCC(Nc2nccc(-c3sc(C(C)(C)C)nc3-c3cccc(NS(=O)(=O)N4CCc5ccc(C#N)cc54)c3F)n2)CC1` [Example 183, N-(3-(2-(tert-butyl)-5-(2-((1-(N-methyl-sulfamoyl)piperidin-4-yl)amino)-pyrimidin-4-yl)thiazol-4-yl)-2~fluoro-phenyl)-6-cyano-indoline-1-sulfonamide], with 0.133 µM.
With `O=S1(=O)CC2(CC(Nc3nccc(-c4sc(N5C6CCC5CN(C5CC(F)(F)C5)C6)nc4-c4cccc(NS(=O)(=O)N5CCc6ccc(Cl)cc65)c4F)n3)C2)C1` [Example 51, 6-chloro-N-(3-(2-(3-(3,3-difluoro-cyclobutyl)-3,8-diazabicyclo [3.2.1]octan-8-yl)-5-(2-((2,2-dioxido-2-thiaspiro-[3.3]heptan-6-yl)amino)-pyrimidin-4-yl)thiazol-4-yl)-2-fluorophenyl)-indoline-1-sulfonamide], the IC50 came to 0.336 µM.
For `CN(C)CCOc1ccc2c(c1)N(S(=O)(=O)Nc1cccc(-c3nc(C(C)(C)C)sc3-c3ccnc(NC4CCN(S(C)(=O)=O)CC4)n3)c1F)CC2` [Example 188, N-(3-(2-(tert-butyl)-5-(2-((1-(methylsulfonyl)-piperidin-4-yl)amino)-pyrimidin-4-yl)thiazol-4-yl)-2-fluoro-phenyl)-6-(2-(dimethylamino)-ethoxy)-indoline-1-sulfonamide], the IC50 worked out at 1.66 µM.
Then `CN(C)CCN(C)S(=O)(=O)N1CCC(Nc2nccc(-c3sc(C(C)(C)C)nc3-c3cccc(NS(=O)(=O)N(C)C)c3F)n2)CC1` [Example 135, 4-((4-(2-(tert-butyl)-4-(3-((N,N-dimethyl-sulfamoyl)amino)-2-fluoro-phenyl)thiazol-5-yl)pyrimidin-2-yl)amino)-N-(2-(dimethyl-amino)ethyl)-N-methylpiperidine-1-sulfonamide], with 0.474 µM.
Then `CC(C)(C)c1nc(-c2cccc(NS(=O)(=O)N3Cc4cccc(Oc5ccccc5)c4C3)c2F)c(-c2ccnc(NC3CCN(S(C)(=O)=O)CC3)n2)s1` [Example 211, N-(3-(2-(tert-butyl)-5-(2-((1-(methylsulfonyl)-piperidin-4-yl)amino)-pyrimidin-4-yl)thiazol-4-yl)-2-fluoro-phenyl)-4-phenoxyisoindoline-2-sulfonamide], with 0.613 µM; and `CS(=O)(=O)[C@H]1CC[C@H](Nc2nccc(-c3sc(N4C5CCC4CN(C4CC(F)(F)C4)C5)nc3-c3cccc(NS(=O)(=O)N4CCc5ccc(C(F)(F)F)cc54)c3F)n2)CC1` [Example 295, N-(3-(2-(3-(3,3-difluorocyclobutyl)-3,8-diazabicyclo[3.2.1]octan-8-yl)-5-(2-(((1r,4r)-4-(methylsulfonyl)cyclohexyl)-amino)pyrimidin-4-yl)thiazol-4-yl)-2-fluorophenyl)-6-(trifluoromethyl)-indoline-1-sulfonamide], with 0.536 µM; and `CC(C)(C)c1nc(-c2cccc(NS(=O)(=O)N3CCN(S(C)(=O)=O)CC3)c2F)c(-c2ccnc(NC3CCN(S(C)(=O)=O)CC3)n2)s1` [Example 93, N-(3-(2-(tert-butyl)-5-(2-((1-(methylsulfonyl)piperidin-4-yl)amino)-pyrimidin-4-yl)thiazol-4-yl)-2-fluorophenyl)-4-(methylsulfonyl)-piperazine-1-sulfonamide], with 3.03 µM.
Then `CC(C)(C)c1nc(-c2cccc(NS(=O)(=O)N3Cc4ccncc4C3)c2F)c(-c2ccnc(NC3CC4(C3)CS(=O)(=O)C4)n2)s1` [Example 187, N-(3-(2-(tert-butyl)-5-(2-((2,2-dioxido-2-thiaspiro[3.3]heptan-6-yl)amino)-pyrimidin-4-yl)thiazol-4-yl)-2-fluoro-phenyl)-1,3-dihydro-2H-pyrrolo[3,4-c]-pyridine-2-sulfonamide], with 0.194 µM.
As for `CC(C)(C)c1nc(-c2cccc(NS(=O)(=O)N3CCc4c(C#N)cccc43)c2F)c(-c2ccnc(NC3CC4(C3)CS(=O)(=O)C4)n2)s1` [Example 193, N-(3-(2-(tert-butyl)-5-(2-((2,2-dioxido-2-thiaspiro[3.3]heptan-6-yl)amino)-pyrimidin-4-yl)thiazol-4-yl)-2-fluoro-phenyl)-4-cyanoindoline-1-sulfonamide], the IC50 was found to be 0.125 µM.
Regarding `CC1(c2nc(-c3cccc(NS(=O)(=O)N4CCc5ccc(C#N)cc54)c3F)c(-c3ccnc(NC4CC5CS(=O)(=O)CC5C4)n3)s2)CCOCC1` (stereo not shown) [Example 240, 6-cyano-N-(3-(5-(2-((2,2-dioxidohexa-hydro-1H-cyclopenta[c]thiophen-5-yl)amino)-pyrimidin-4-yl)-2-(4-methyl-tetrahydro-2H-pyran-4-yl)thiazol-4-yl)-2-fluorophenyl)-indoline-1-sulfonamide], the IC50 turned out to be 0.0382 µM.
On to `CC(C)(C)c1nc(-c2cccc(NS(=O)(=O)N3CCc4ccc(C#N)cc43)c2F)c(-c2ccnc(Nc3ccc(S(C)(=O)=O)cc3)n2)s1` [Example 242, N-(3-(2-(tert-butyl)-5-(2-((4-(methylsulfonyl)-phenyl)amino)-pyrimidin-4-yl)thiazol-4-yl)-2-fluoro-phenyl)-6-cyanoindoline-1-sulfonamide], for which the IC50 was 0.302 µM.
Then `O=S1(=O)CC2(CC(Nc3nccc(-c4sc(N5C6CCC5COC6)nc4-c4cccc(NS(=O)(=O)N5Cc6ccncc6C5)c4F)n3)C2)C1` [Example 212, N-(3-(2-(3-oxa-8-azabicyclo [3.2.1]octan-8-yl)-5-(2-((2,2-dioxido-2-thiaspiro-[3.3]heptan-6-yl)amino)pyrimidin-4-yl)thiazol-4-yl)-2-fluorophenyl)-1,3-dihydro-2H-pyrrolo [3,4-c]-pyridine-2-sulfonamide], with 0.662 µM; and `CN1CC2CCC(C1)N2c1nc(-c2cccc(NS(=O)(=O)N3CCc4ccc(C(F)(F)F)cc43)c2F)c(-c2ccnc(N[C@H]3CC[C@H](S(C)(=O)=O)CC3)n2)s1` [Example 294, N-(2-fluoro-3-(2-(3-methyl-3,8-diazabicyclo[3.2.1]octan-8-yl)-5-(2-(((1r,4r)-4-(methylsulfonyl)cyclohexyl)-amino)pyrimidin-4-yl)thiazol-4-yl)phenyl)-6-(trifluoromethyl) indoline-1-sulfonamide], with 0.0429 µM.
With `O=S1(=O)CC2(CC(Nc3nccc(-c4sc(N5C6CCC5CN(CC(F)(F)F)C6)nc4-c4cccc(NS(=O)(=O)N5Cc6cccc(C(F)F)c6C5)c4F)n3)C2)C1` [Example 49], the IC50 stood at 0.137 µM.
Then `O=S1(=O)CC2(CC(Nc3nccc(-c4sc(C56CC(C(F)(F)F)(C5)C6)nc4-c4cccc(NS(=O)(=O)N5CCc6ccc(Cl)cc65)c4F)n3)C2)C1` [Example 280, 6-chloro-N-(3-(5-(2-((2,2-dioxido-2-thiaspiro[3.3]heptan-6-yl)amino)-pyrimidin-4-yl)-2-(3-(trifluoromethyl)-bicyclo[1.1.1]pentan-1-yl)thiazol-4-yl)-2-fluorophenyl) indoline-1-sulfonamide], with 0.285 µM.
Then `CC(C)(C)c1nc(-c2cccc(NS(=O)(=O)N3Cc4cccc(OCCO)c4C3)c2F)c(-c2ccnc(NC3CCN(S(C)(=O)=O)CC3)n2)s1` [Example 237, N-(3-(2-(tert-butyl)-5-(2-((1-(methylsulfonyl)-piperidin-4-yl)amino)-pyrimidin-4-yl)thiazol-4-yl)-2-fluoro-phenyl)-4-(2-hydroxyethoxy)-isoindoline-2-sulfonamide], with 0.297 µM; and `Cn1cc2c(n1)CN(S(=O)(=O)Nc1cccc(-c3nc(C(C)(C)C)sc3-c3ccnc(NC4CCN(S(C)(=O)=O)CC4)n3)c1F)C2` [Example 86, N-(3-(2-(tert-butyl)-5-(2-((1-(methylsulfonyl)-piperidin-4-yl)amino)-pyrimidin-4-yl)thiazol-4-yl)-2-fluoro-phenyl)-2-methyl-2,6-dihydro-pyrrolo[3,4-c]pyrazole-5(4H)-sulfonamide], with 0.484 µM; and `CC(C)(C)c1nc(-c2cccc(NS(=O)(=O)N3CCc4c(CC#N)cccc43)c2F)c(-c2ccnc(NC3CC4(C3)CS(=O)(=O)C4)n2)s1` [Example 238, N-(3-(2-(tert-butyl)-5-(2-((2,2-dioxido-2-thiaspiro[3.3]heptan-6-yl)amino)-pyrimidin-4-yl)thiazol-4-yl)-2-fluoro-phenyl)-4-(cyanomethyl) indoline-1-sulfonamide], with 0.295 µM.
Then `CN1CCN(S(=O)(=O)Nc2cccc(-c3nc(C(C)(C)C)sc3-c3ccnc(NC4CCN(S(C)(=O)=O)CC4)n3)c2F)c2ccccc21` [Example 99, N-(3-(2-(tert-butyl)-5-(2-((1-(methylsulfonyl)piperidin-4-yl)amino)-pyrimidin-4-yl)thiazol-4-yl)-2-fluoro-phenyl)-4-methyl-3,4-dihydro-quinoxaline-1(2H)-sulfonamide], with 0.202 µM.
